Assays:
ROCK1 = ROCK1 (Homo sapiens (Human), UniProt Q13464); assay: In vitro inhibitory activity against ROCK protein kinase (33P-ATP filter-binding), ROCK1; assay type: biochemical; settings: 1 nM ROCK protein kinase, 20 μM Long S6 Kinase substrate peptide
Protocol: (§1) 1. In Vitro Evaluation of the Inhibitory Activity Against ROCK Protein Kinase
(§2) Experimental purpose: to detect the inhibitory IC50 value of the compound against ROCK protein kinase.
(§3) Assay buffer solution: 20 mM 4-hydroxyethylpiperazine ethanesulfonic acid (pH 7.5), 10 mM magnesium chloride, 1 mM ethylene glycol-bis-(2-aminoethyl)tetraacetic acid, 0.02% polyethylene glycol monododecyl ether, 0.02 mg/mL bovine serum albumin, 0.1 mM sodium vanadate, 2 mM dithiothreitol, 1% DMSO.
(§4) The freshly prepared buffer solution was added to ROCK protein kinase substrate (Long S6 Kinase substrate peptide), at a concentration of 20 μM, then 1 nM ROCK protein kinase was added thereto and stirred evenly. Echo550 was used to add a series of DMSO dilutions containing the test compound (starting from 10 μM, serially diluted by 3 times), the solution was pre-incubated at room temperature for 20 minutes, then ^33P-ATP (radiation intensity 10 μCi/μL) was added to initiate the reaction, and the reaction was performed at room temperature for two hours. Then the solution was filtered by P81 ion exchange paper (Whatman #3698-915) and washed with 0.75% phosphoric acid. The radiation intensity was determined by Filter-Binding method.
(§5) The protein kinase inhibitory activity of the compound was expressed as the remaining protein kinase activity relative to the blank substrate (simply DMSO). Prism software package (GraphPad Software, San Diego Calif., USA) was used to calculate IC50 value and the curve.

ROCK2 = ROCK2 (Homo sapiens (Human), UniProt O75116); assay: In vitro inhibitory activity against ROCK protein kinase (33P-ATP filter-binding), ROCK2; assay type: biochemical; settings: 1 nM ROCK protein kinase, 20 μM Long S6 Kinase substrate peptide
Protocol: as §1, §2, §3, §4, §5

[1] = Pharmacokinetics in SD rats (intravenous injection and oral administration); assay type: in vivo; settings: rat, plasma, male SD rats; for clearance / half-life / Vd: intravenous 1 mg/kg; for clearance: read-out: Clearance rate CL; for half-life: read-out: Half-life T1/2 (IV) (converted); for Vd: read-out: Tissue distribution Vdss; for bioavailability: oral 2 mg/kg vs intravenous 1 mg/kg, read-out: Bioavailability F; for AUC(0-t) / Cmax: oral 2 mg/kg; for AUC(0-t): read-out: Area under the drug-time curve AUC0-last PO; for Cmax: read-out: Peak concentration Cmax
Protocol: 4. Evaluation of the Pharmacokinetics of the Compound
Experimental purpose: to study the pharmacokinetics of the compounds in SD rats in vivo
SD rat (male, 7 to 10 weeks old, WTLH/SLAC)
The rodent pharmacokinetic characteristics of the compounds after intravenous injection and oral administration were tested by standard protocols. In the experiment, the candidate compounds were formulated into 0.2 mg/mL clear solutions and were given to the rats by a single intravenous injection and oral administration. The vehicles of the intravenous injection and oral administration were both 5% DMSO/95% (10% hydroxypropyl P-cyclodextrin) aqueous solution. This project used four male SD rats and two of them were administered by intravenous injection at a dosage of 1 mg/kg, plasma samples were collected at 0.0833, 0.25, 0.5, 1, 2, 4, 6, 8, and 24 hours after administration, the other two rats were administered orally and intragastrically at a dosage of 2 mg/kg, plasma samples were collected at 0.25, 0.5, 1, 2, 3, 4, 6, 8, 24 hours after administration. The whole blood samples were collected within 24 hours and centrifuged at 3000 g for 15 minutes, and the supernatants were separated to give plasma samples. The plasma samples were added with an acetonitrile solution containing internal standard to precipitate protein, mixed thoroughly and centrifuged, and the supernatants were taken for injection. The blood drug concentration was quantitatively analyzed by LC-MS/MS analysis method, and the pharmacokinetic parameters (such as peak concentration (Cmax), clearance rate (CL), half-life (T1/2), […] (Vdss), area under the drug-time curve (AUC0-last), and bioavailability (F), etc.) were calculated.

Chain of ROCK1 (Q13464 whole entry): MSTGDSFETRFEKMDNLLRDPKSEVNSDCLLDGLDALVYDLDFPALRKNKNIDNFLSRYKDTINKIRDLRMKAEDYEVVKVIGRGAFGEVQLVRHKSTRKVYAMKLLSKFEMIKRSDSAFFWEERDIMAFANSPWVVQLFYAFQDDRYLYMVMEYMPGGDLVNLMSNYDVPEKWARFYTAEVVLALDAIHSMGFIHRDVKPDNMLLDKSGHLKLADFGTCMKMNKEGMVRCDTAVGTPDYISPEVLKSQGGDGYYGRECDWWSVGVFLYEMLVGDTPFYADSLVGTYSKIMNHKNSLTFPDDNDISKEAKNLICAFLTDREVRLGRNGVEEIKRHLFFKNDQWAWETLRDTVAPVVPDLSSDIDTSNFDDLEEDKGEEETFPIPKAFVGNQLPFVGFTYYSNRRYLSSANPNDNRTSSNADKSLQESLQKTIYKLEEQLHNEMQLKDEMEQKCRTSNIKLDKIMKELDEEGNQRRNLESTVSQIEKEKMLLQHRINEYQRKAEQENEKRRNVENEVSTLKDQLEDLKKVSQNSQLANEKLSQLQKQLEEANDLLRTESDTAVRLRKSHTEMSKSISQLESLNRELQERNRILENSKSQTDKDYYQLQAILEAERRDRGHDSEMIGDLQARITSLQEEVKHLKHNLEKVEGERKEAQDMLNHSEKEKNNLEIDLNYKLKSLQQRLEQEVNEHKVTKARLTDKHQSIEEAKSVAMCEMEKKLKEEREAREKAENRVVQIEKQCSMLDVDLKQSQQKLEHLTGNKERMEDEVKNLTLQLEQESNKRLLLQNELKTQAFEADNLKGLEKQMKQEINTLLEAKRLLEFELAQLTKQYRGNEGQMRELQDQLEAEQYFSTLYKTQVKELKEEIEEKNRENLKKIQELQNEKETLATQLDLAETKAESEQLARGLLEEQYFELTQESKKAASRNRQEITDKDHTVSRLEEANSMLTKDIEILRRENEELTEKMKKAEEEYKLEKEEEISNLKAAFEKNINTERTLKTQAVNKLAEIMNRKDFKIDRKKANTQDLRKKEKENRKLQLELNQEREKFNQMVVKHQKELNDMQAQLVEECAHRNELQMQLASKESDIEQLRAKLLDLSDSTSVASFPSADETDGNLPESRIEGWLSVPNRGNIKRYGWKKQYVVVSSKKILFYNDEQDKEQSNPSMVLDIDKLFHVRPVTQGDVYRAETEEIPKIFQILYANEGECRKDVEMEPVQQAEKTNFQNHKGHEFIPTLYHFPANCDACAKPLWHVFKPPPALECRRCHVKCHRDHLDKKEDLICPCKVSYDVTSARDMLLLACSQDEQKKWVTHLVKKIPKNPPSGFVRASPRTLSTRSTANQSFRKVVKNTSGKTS
Chain of ROCK2 (O75116 whole entry): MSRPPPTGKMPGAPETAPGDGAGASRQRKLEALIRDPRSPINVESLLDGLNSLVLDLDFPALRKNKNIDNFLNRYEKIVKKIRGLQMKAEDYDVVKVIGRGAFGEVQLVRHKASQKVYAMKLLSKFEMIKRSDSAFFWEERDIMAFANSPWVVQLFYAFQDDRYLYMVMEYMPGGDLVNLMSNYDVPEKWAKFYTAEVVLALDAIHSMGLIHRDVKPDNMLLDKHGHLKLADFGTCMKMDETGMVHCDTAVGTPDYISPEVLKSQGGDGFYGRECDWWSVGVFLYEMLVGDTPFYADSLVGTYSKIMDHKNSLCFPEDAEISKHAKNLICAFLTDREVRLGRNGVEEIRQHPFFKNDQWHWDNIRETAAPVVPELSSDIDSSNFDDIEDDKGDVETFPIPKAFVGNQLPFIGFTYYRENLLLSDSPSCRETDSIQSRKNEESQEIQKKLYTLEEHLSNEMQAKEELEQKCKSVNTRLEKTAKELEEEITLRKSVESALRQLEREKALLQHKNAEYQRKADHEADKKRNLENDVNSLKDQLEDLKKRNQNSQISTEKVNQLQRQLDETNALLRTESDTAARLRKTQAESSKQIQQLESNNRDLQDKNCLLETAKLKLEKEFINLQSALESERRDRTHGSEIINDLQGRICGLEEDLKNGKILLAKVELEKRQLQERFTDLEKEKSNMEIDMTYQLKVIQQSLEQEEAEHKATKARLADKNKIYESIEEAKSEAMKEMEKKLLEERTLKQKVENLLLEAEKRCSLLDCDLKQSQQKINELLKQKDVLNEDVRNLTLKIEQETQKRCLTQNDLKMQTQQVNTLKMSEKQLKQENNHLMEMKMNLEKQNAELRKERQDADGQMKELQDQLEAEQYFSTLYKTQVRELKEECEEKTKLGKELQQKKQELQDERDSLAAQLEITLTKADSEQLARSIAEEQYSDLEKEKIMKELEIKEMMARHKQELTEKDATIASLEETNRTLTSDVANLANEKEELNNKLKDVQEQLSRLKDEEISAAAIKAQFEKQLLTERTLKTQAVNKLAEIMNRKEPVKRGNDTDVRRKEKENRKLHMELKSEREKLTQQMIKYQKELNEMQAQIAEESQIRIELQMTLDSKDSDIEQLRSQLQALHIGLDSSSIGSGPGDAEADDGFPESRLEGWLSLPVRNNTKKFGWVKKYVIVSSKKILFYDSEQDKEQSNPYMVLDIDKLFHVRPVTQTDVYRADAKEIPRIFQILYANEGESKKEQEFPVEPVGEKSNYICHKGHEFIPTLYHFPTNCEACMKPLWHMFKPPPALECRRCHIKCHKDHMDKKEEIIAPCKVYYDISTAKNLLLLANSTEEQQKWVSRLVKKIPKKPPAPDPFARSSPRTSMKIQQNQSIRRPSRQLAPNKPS

| IC50 (ROCK1) | IC50 (ROCK2) | clearance [1] | half-life [1] | Vd [1] | bioavailability [1] | AUC(0-t) [1] | Cmax [1] | SMILES |
| --- | --- | --- | --- | --- | --- | --- | --- | --- |
| 89 nM | 5 nM | 6.24 mL/min/kg | 2.91 h | 1.15 L/kg | 45% | 6.3 µM·h | 1180 nM | COc1cccc(C(CO)NC(=O)c2cccc(-c3ccc4[nH]nc(C)c4c3)c2)c1 (centres unmarked) [Compound 25] |
| 113 nM | 16 nM | 14 mL/min/kg | 2.5 h | 1.72 L/kg | 51% | 3.04 µM·h | 752 nM | COc1cccc(C(CO)NC(=O)c2cccc(-c3ccc4[nH]nc(F)c4c3)c2)c1 (centres unmarked) [Compound 26] |
| 317 nM | 13 nM | 25 mL/min/kg | 3.83 h | 6.78 L/kg | 21% | 0.734 µM·h | 117 nM | Cc1cccc(C(CN)NC(=O)c2cccc(-c3ccc4[nH]nc(C)c4c3)c2)c1 (centres unmarked) [Compound 35] |
| 73 nM | 10 nM | 50.9 mL/min/kg | 1.33 h | 5.05 L/kg | 10% | 0.156 µM·h | 36.4 nM | COc1cccc(C(CN(C)C)NC(=O)c2cccc(-c3ccc4[nH]nc(C)c4c3)c2)c1 (centres unmarked) [Compound 36] |
| 57 nM | 4 nM | 23.4 mL/min/kg | 3.58 h | 6 L/kg | 21% | 0.758 µM·h | 117 nM | COc1cccc(C(CN)NC(=O)c2cc(-c3ccc4[nH]nc(C)c4c3)ccn2)c1 (centres unmarked) [Compound 40] |
| 1200 nM | 31 nM | 23.1 mL/min/kg | 4.82 h | 8.31 L/kg | 60% | 1.33 µM·h | 157 nM | COc1cccc(C(CN)NC(=O)c2cc(-c3ccc4[nH]nc(C)c4c3)ccc2OC(F)(F)F)c1 (centres unmarked) [Compound 49] |
| 253 nM | 23 nM | 30.8 mL/min/kg | 2.37 h | 4.72 L/kg | 11% | 0.266 µM·h | 55.6 nM | Cc1n[nH]c2ccc(-c3cccc(C(=O)NC(CN)c4cccc(F)c4F)c3)cc12 (centres unmarked) [Compound 61] |
| 798 nM | 46 nM | 88.3 mL/min/kg | 2.83 h | 16.4 L/kg | 12% | 0.1 µM·h | 17 nM | COc1cccc(C(NC(=O)c2cccc(-c3ccc4[nH]nc(C)c4c3)c2)C(C)(C)N)c1 (centres unmarked) [Compound 64] |
| 193 nM | 11 nM | 50.8 mL/min/kg | 2.74 h | 10.5 L/kg | 20.9% | 0.306 µM·h | 50.7 nM | CNCC(NC(=O)c1cc(-c2ccc3[nH]nc(C)c3c2)ccn1)c1cccc(OC)c1 (centres unmarked) [Compound 66] |
| 587 nM | 12 nM | 55.7 mL/min/kg | 0.62 h | 1.79 L/kg | 11% | 0.148 µM·h | 99.4 nM | COc1cccc(C(CNS(C)(=O)=O)NC(=O)c2cccc(-c3ccc4[nH]nc(C)c4c3)c2)c1 (centres unmarked) [Compound 72] |

From patent US11345678B2, “Benzopyrazole compound used as RHO kinase inhibitor” (MEDSHINE DISCOVERY INC., priority 2018, dated 2022)
